Test results published in patent US12479850B2, “Compound having Axl and c-Met kinase inhibitory activity, preparation thereof and application thereof” (Shanghai Institute of Materia Medica, Chinese Academy of …, priority 2019, dated 2025).

What was measured:
[1] = biological target: T1, Axl kinase domain recombinant protein (Homo sapiens, UniProt P30530); assay: ELISA kinase activity assay, Axl
T1 sequence (P30530 536-807 limits assumed): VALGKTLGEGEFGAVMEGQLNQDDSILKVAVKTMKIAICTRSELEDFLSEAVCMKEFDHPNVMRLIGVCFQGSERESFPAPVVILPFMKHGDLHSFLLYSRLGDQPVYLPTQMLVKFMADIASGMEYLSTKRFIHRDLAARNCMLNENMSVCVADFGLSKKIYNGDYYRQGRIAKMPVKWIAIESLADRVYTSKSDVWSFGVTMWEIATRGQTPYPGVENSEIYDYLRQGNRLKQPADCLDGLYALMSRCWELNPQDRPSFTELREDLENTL

[2] = biological target: c-Met kinase domain recombinant protein (Homo sapiens, UniProt P08581); assay: ELISA kinase activity assay, c-Met
Sequence of c-Met kinase domain recombinant protein (P08581 1078-1345 limits assumed): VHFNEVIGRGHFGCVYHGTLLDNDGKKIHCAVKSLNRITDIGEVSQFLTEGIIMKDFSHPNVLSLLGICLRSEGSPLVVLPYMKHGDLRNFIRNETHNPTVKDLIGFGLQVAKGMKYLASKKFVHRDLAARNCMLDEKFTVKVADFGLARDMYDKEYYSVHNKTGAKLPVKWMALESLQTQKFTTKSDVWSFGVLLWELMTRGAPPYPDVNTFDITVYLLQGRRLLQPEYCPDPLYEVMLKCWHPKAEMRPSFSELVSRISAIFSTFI

| SMILES | IC50 [1] | IC50 [2] |
| --- | --- | --- |
| Cn1cc(-c2cc(Oc3ccc(NC(=O)c4cn(-c5ccc(F)cc5)c(=O)n(-c5ccc(F)cc5)c4=O)cc3F)ccn2)cn1 [No. 12, N-(3-fluoro-4-((2-(1-methyl-1H-pyrazol-4-yl)pyridin-4-yl)oxy)phenyl)-1,3-bis(4-fluorophenyl)-2,4-dioxo-1,2,3,4-tetrahydropyrimidin-5-carboxamide] | > 100 nM | > 100 nM |
| CC(C)n1cc(C(=O)Nc2ccc(Oc3ccnc(-c4cnn(C)c4)c3)c(F)c2)c(=O)n(-c2ccccc2)c1=O [No. 13, N-(3-fluoro-4-((2-(1-methyl-1H-pyrazol-4-yl)pyridin-4-yl)oxy)phenyl)-1-isopropyl-2,4-dioxo-3-phenyl-1,2,3,4-tetrahydropyrimidin-5-carboxamide] | 10 to 100 nM | 10 to 100 nM |
| COc1ccc(-n2c(=O)c(C(=O)Nc3ccc(Oc4ccnc(-c5cnn(C)c5)c4)c(F)c3)cn(C(C)C)c2=O)cc1 [No. 16, N-(3-fluoro-4-((2-(1-methyl-1H-pyrazol-4-yl)pyridin-4-yl)oxy)phenyl)-1-isopropyl-3-(4-methoxyphenyl)-2,4-dioxo-1,2,3,4-tetrahydropyrimidin-5-carboxamide] | > 100 nM | > 100 nM |
| CC(C)n1cc(C(=O)Nc2ccc(Oc3ccnc(-c4cnn(C)c4)c3)c(F)c2)c(=O)n(-c2ccncc2)c1=O [No. 20, N-(3-fluoro-4-((2-(1-methyl-1H-pyrazol-4-yl)pyridin-4-yl)oxy)phenyl)-1-isopropyl-2,4-dioxo-3-(pyridin-4-yl)-1,2,3,4-tetrahydropyrimidin-5-carboxamide] | > 100 nM | > 100 nM |
| CC(C)n1cc(C(=O)Nc2ccc(Oc3ccnc(-c4cnn(C)c4)c3)c(F)c2)c(=O)n(-c2cnn(C)c2)c1=O [No. 21, N-(3-fluoro-4-((2-(1-methyl-1H-pyrazol-4-yl)pyridin-4-yl)oxy)phenyl)-1-isopropyl-3-(1-methyl-1H-pyrazol-4-yl)-2,4-dioxo-1,2,3,4-tetrahydropyrimidin-5-carboxamide] | 10 to 100 nM | > 100 nM |
| CC(C)n1cc(C(=O)Nc2ccc(Oc3ccnc(-c4cnn(C)c4)c3)c(F)c2)c(=O)n([C@H]2CC[C@H](C)CC2)c1=O [No. 22, N-(3-fluoro-4-((2-(1-methyl-1H-pyrazol-4-yl)pyridin-4-yl)oxy)phenyl)-1-isopropyl-3-((1R,4R)-4-methylcyclohexyl)-2,4-dioxo-1,2,3,4-tetrahydropyrimidin-5-carboxamide] | 10 to 100 nM | > 100 nM |
| CC(C)n1nc(C(=O)Nc2ccc(Oc3ccnc(-c4cnn(C)c4)c3)cc2)c(=O)n(-c2ccc(F)cc2)c1=O [No. 23, 4-(4-fluorophenyl)-2-isopropyl-N-(4-((2-(1-methyl-1H-pyrazol-4-yl)pyridin-4-yl)oxy)phenyl)-3,5-dioxo-2,3,4,5-tetrahydro-1,2,4-triazin-6-carboxamide] | 10 to 100 nM | 10 to 100 nM |
| CC(C)n1cc(C(=O)Nc2ccc(-c3cc(-c4cn[nH]c4)cnc3N)c(F)c2)c(=O)n(-c2ccc(F)cc2)c1=O [No. 40, N-(4-(2-amino-5-(1H-pyrazol-4-yl)pyridin-3-yl)-3-fluorophenyl)-3-(4-fluorophenyl)-1-isopropyl-2,4-dioxo-1,2,3,4-tetrahydropyrimidin-5-carboxamide] | > 100 nM | > 100 nM |
| CC(C)n1cc(C(=O)Nc2ccc(Oc3ccnc4c3CC(=O)N4)c(F)c2)c(=O)n(-c2ccc(F)cc2)c1=O [No. 45, N-(3-fluoro-4-((2-oxo-2,3-dihydro-1H-pyrrolo[2,3-b]pyridin-4-yl)oxyl)phenyl)-3-(4-fluorophenyl)-1-isopropyl-2,4-dioxo-1,2,3,4-tetrahydropyrimidin-5-carboxamide] | 10 to 100 nM | > 100 nM |
| CC(C)n1cc(C(=O)Nc2ccc(Oc3ccnc4c3CCN4)c(F)c2)c(=O)n(-c2ccc(F)cc2)c1=O [No. 51, N-(4-((2,3-dihydro-1H-pyrrolo[2,3-b]pyridin-4-yl)oxy)-3-fluorophenyl)-3-(4-fluorophenyl)-1-isopropyl-2,4-dioxo-1,2,3,4-tetrahydropyrimidin-5-carboxamide] | < 10 nM | < 10 nM |

Continued, values first:

| IC50 [1] | IC50 [2] | SMILES |
| --- | --- | --- |
| < 10 nM | < 10 nM | COCCn1cc(C(=O)Nc2ccc(Oc3ccnc(-c4cnn(C)c4)c3)c(F)c2)c(=O)n(-c2ccc(F)cc2)c1=O [No. 10, N-(3-fluoro-4-((2-(1-methyl-1H-pyrazol-4-yl)pyridin-4-yl)oxy)phenyl)-3-(4-fluorophenyl)-1-(2-methoxyethyl)-2,4-dioxo-1,2,3,4-tetrahydropyrimidin-5-carboxamide] |
| < 10 nM | < 10 nM | Cn1cc(-c2cc(Oc3ccc(NC(=O)c4cn(C5CCCC5)c(=O)n(-c5ccc(F)cc5)c4=O)cc3F)ccn2)cn1 [No. 11, 1-cyclopentyl-N-(3-fluoro-4-((2-(1-methyl-1H-pyrazol-4-yl)pyridin-4-yl)oxy)phenyl)-3-(4-fluorophenyl)-2,4-dioxo-1,2,3,4-tetrahydropyrimidin-5-carboxamide] |
| < 10 nM | < 10 nM | CC(C)n1cc(C(=O)Nc2ccc(Oc3ccnc(-c4cnn(C)c4)c3)c(F)c2)c(=O)n(-c2ccc(Cl)cc2)c1=O [No. 14, 3-(4-chlorophenyl)-N-(3-fluoro-4-((2-(1-methyl-1H-pyrazol-4-yl)pyridin-4-yl)oxy)phenyl)-1-isopropyl-2,4-dioxo-1,2,3,4-tetrahydropyrimidin-5-carboxamide] |
| < 10 nM | < 10 nM | Cc1ccc(-n2c(=O)c(C(=O)Nc3ccc(Oc4ccnc(-c5cnn(C)c5)c4)c(F)c3)cn(C(C)C)c2=O)cc1 [No. 15, N-(3-fluoro-4-((2-(1-methyl-1H-pyrazol-4-yl)pyridin-4-yl)oxy)phenyl)-1-isopropyl-2,4-dioxo-3-p-tolyl-1,2,3,4-tetrahydropyrimidin-5-carboxamide] |
| < 10 nM | < 10 nM | CC(C)n1cc(C(=O)Nc2ccc(Oc3ccnc(-c4cnn(C)c4)c3)c(F)c2)c(=O)n(-c2cccc(F)c2)c1=O [No. 17, N-(3-fluoro-4-((2-(1-methyl-1H-pyrazol-4-yl)pyridin-4-yl)oxy)phenyl)-3-(3-fluorophenyl)-1-isopropyl-2,4-dioxo-1,2,3,4-tetrahydropyrimidin-5-carboxamide] |
| < 10 nM | 10 to 100 nM | CC(C)n1cc(C(=O)Nc2ccc(Oc3ccnc(-c4cnn(C)c4)c3)c(F)c2)c(=O)n(-c2ccccc2F)c1=O [No. 18, N-(3-fluoro-4-((2-(1-methyl-1H-pyrazol-4-yl)pyridin-4-yl)oxy)phenyl)-3-(2-fluorophenyl)-1-isopropyl-2,4-dioxo-1,2,3,4-tetrahydropyrimidin-5-carboxamide] |
| < 10 nM | < 10 nM | CC(C)n1cc(C(=O)Nc2ccc(Oc3ccnc(-c4cnn(C)c4)c3)c(F)c2)c(=O)n(-c2ccc(F)c(F)c2)c1=O [No. 19, 3-(3,4-difluorophenyl)-N-(3-fluoro-4-((2-(1-methyl-1H-pyrazol-4-yl)pyridin-4-yl)oxy)phenyl)-1-isopropyl-2,4-dioxo-1,2,3,4-tetrahydropyrimidin-5-carboxamide] |
| < 10 nM | 10 to 100 nM | CC(C)n1nc(C(=O)Nc2ccc(Oc3ccnc(-c4cnn(C)c4)c3)c(F)c2)c(=O)n(-c2ccc(F)cc2)c1=O [No. 24, N-(3-fluoro-4-((2-(1-methyl-1H-pyrazol-4-yl)pyridin-4-yl)oxy)phenyl)-4-(4-fluorophenyl)-2-isopropyl-3,5-dioxo-2,3,4,5-tetrahydro-1,2,4-triazine-6-carboxamide] |
| < 10 nM | 10 to 100 nM | COc1ccc(-c2cnc(N)c(-c3ccc(NC(=O)c4cn(C(C)C)c(=O)n(-c5ccc(F)cc5)c4=O)cc3F)c2)cc1OC [No. 37, N-(4-(2-amino-5-(3,4-dimethoxyphenyl)pyridin-3-yl)-3-fluorophenyl)-3-(4-fluorophenyl)-1-isopropyl-2,4-dioxo-1,2,3,4-tetrahydropyrimidin-5-carboxamide] |
| < 10 nM | < 10 nM | CC(C)n1cc(C(=O)Nc2ccc(-c3cc(-c4cnn(C)c4)cnc3N)c(F)c2)c(=O)n(-c2ccc(F)cc2)c1=O [No. 38, N-(4-(2-amino-5-(1-methyl-1H-pyrazol-4-yl)pyridin-3-yl)-3-fluorophenyl)-3-(4-fluorophenyl)-1-isopropyl-2,4-dioxo-1,2,3,4-tetrahydropyrimidin-5-carboxamide] |
| < 10 nM | 10 to 100 nM | COc1cc(-c2cnc(N)c(-c3ccc(NC(=O)c4cn(C(C)C)c(=O)n(-c5ccc(F)cc5)c4=O)cc3F)c2)ccc1OC[C@H]1COCCO1 [No. 39, (R)—N-(4-(5-(4-((1,4-dioxan-2-yl)methoxy)-3-methoxyphenyl)-2-aminopyridin-3-yl)-3-fluorophenyl)-3-(4-fluorophenyl)-1-isopropyl-2,4-dioxo-1,2,3,4-tetrahydropyrimidin-5-carboxamide] |
| < 10 nM | < 10 nM | CC(C)n1cc(C(=O)Nc2ccc(Oc3ccnc4[nH]cc(Br)c34)c(F)c2)c(=O)n(-c2ccc(F)cc2)c1=O [No. 42] |
| < 10 nM | 10 to 100 nM | CC(C)n1cc(C(=O)Nc2ccc(Oc3ncnc4[nH]cc(-c5ccccc5)c34)c(F)c2)c(=O)n(-c2ccc(F)cc2)c1=O [No. 44, N-(3-fluoro-4-((5-phenyl-7H-pyrrolo[2,3-d]pyrimidin-4-yl)oxy)phenyl)-3-(4-fluorophenyl)-1-isopropyl-2,4-dioxo-1,2,3,4-tetrahydropyrimidin-5-carboxamide] |
| < 10 nM | 10 to 100 nM | CC(C)n1cc(C(=O)Nc2ccc(Oc3ccnc4c3OCCN4)cc2)c(=O)n(-c2ccc(F)cc2)c1=O [No. 48, N-(4-((3,4-dihydro-2H-pyridino[3,2-b][1,4]oxazin-8-yl)oxy)phenyl)-3-(4-fluorophenyl)-1-isopropyl-2,4-dioxo-1,2,3,4-tetrahydropyrimidin-5-carboxamide] |
